Laboratory results from patent US12414976B2, “Pharmaceutical composition for preventing hair loss or promoting hair growth, comprising ginsenoside RG4 or mixture (Rgx 365) of ginsenosides Rg2, Rg4, Rg6, and Rh1 as active ingredient” (AREZ CO., LTD., priority 2019, dated 2025).

Key:
[1] = system: human hair follicle dermal papilla cells; assay: WST-1 cell viability assay; assay type: cell-based; details: 48 hours, various concentrations, vs non-treated group
Experimental: With reference to the documents [Topouzi, H. et al., Exp Dermatol., 26(6), 491-496, 2017; Higgins, C. A. et al., Proc Natl Acad Sci USA., 110(49), 19679-19688, 2013; Higgins, C. A. et al., Exp Dermatol., 19(6), 546-548, 2010], human hair follicle dermal papilla (HDP) cells were incubated in a general 2D monolayer culture manner and in a 3D spheroid culture manner as in the actual human follicle structure.
First, for 2D monolayer culture, human hair follicle dermal papilla cells were cultured in a mesenchymal stem cell medium (MSCM) (Innoprot, Bizakaia, Spain) supplemented with 5% fetal bovine serum (FBS, Thermo Fisher Scientific, Inc., Waltham, MA, USA) in an incubator maintaining the condition of 37° C. and 5% CO2. […]
First, the human hair follicle dermal papilla cells cultured in a 2D or 3D manner in Experimental Example 1 were seeded at a density of 1×10^4 cells/well into 96-well plates (96-well round-bottom ultra-low attachment microplates) and incubated at 37° C. for 24 hours in a 5% CO2 atmosphere. […] Then, 10 μl of the WST-1 solution was added to the culture and incubated for 30 min before reading absorbance at 450 nm on an iMark microplate reader (Bio-Rad Laboratories, Hercules, CA, USA). […]

LEF1 = assay: Real-time PCR mRNA expression, Wnt/β-catenin signaling; assay type: cell-based, human; details: 3D spheroid culture, 20 μg/ml, 48 hours, relative to β-actin, vs non-treated group (control)
Experimental: (§1) Next, for 3D spheroid culture, human hair follicle dermal papilla cells were cultured in a plate (round-bottom ultra-low attachment microplate, Corning, NY, USA) containing the stem cell medium supplemented with 5% fetal bovine serum at 37° C. under a 5% CO2 atmosphere.
(§2) Next, in order to confirm the luciferase activity results, mRNA analysis was performed on β-catenin, WNT5A, and LEF1, which are involved in the Wnt/β-catenin signaling. First, a 3D spheroid culture of human hair follicle dermal papilla cells was treated with Example 1 (20 μg/ml) for 48 hours, followed by RNA extraction with a TRIzol solution (Invitrogen, Thermo Fisher Scientific). From 2 μg of the RNA extract, cDNA was synthesized in the presence of M-MLV reverse transcriptase. The synthesized cDNA was mixed with HOT FIREPol EvaGreen qPCR Mix Plus solution (Solis BioDyne, Tartu, Estonia) and each of primer sets for the Wnt/β-catenin target genes β-catenin, WNT5A, and LEF1 and subjected to Step OnePlus Real-Time PCR (Applied Biosystems; Thermo Fisher Scientific). Relative to the expression of β-actin housekeeping gene, an expression level of each gene was derived. Analysis results of mRNA expressions are depicted in FIGS. 5B to 5D.

WNT5A = assay: as above; assay type: cell-based, human; details: 3D spheroid culture, 20 μg/ml, 48 hours, relative to β-actin, vs non-treated group (control)
Experimental: as §1, §2

β-catenin = assay: as above; assay type: cell-based, human; details: 3D spheroid culture, 20 μg/ml, 48 hours, relative to β-actin, vs non-treated group (control)
Experimental: as §1, §2

TCF/LEF = TCF/LEF luciferase reporter assay (TOPFlash/FOPFlash), Wnt/β-catenin signaling; assay type: cell-based; details: HEK293 cells, 20 μg/ml, 24 hours, vs non-treated group (control)
Experimental: HEK293 cells were cultured in DMEM (Dulbecco's Modified Eagle's Medium, Thermo Fisher Scientific, Inc.) supplemented with 10% fetal bovine serum, penicillin (50 U/ml), and streptomycin (50 U/ml) under the condition of 37° C. and 5% CO2.
Whether the Wnt/β-catenin signaling is activated or not was determined using a TCF/LEF luciferase reporter plasmid (TOPFlash, Merck-Millipore, Darmstadt, Germany) designed to specifically react with the transcription factor TCF/LEF activated by β-catenin, and a reporter plasmid having a mutation caused in the promoter thereof (FOPFlash, Merck-Millipore, Darmstadt, Germany).
First, the TCF/LEF luciferase reporter plasmid (TOPFlash (TCF/LEF-wt) or FOPFlash (TCF/LEF-mut)) and a β-galactosidase plasmid were transfected into the HEK293 cells cultured in Experimental Example 1 with the aid of Lipofectamine 3000 (Invitrogen, Thermo Fisher Scientific, Inc.). After being incubated with 20 μg/ml of Example 1 for 24 hours, the transfected cells were lysed with a passive lysis buffer (Promega, Madison, WI, USA). The cell lysate thus formed was added with D-luciferin and measured for luciferase activity by Glomax 96 Microplate Luminometer (Turner Biosystem, Sunnyvale, CA, USA). β-Galactosidase activity was measured with the aid of Luminescent β-galactosidase Detection Kit II (Clontech Laboratories Inc., USA). […]

[2] = system: human hair follicle dermal papilla cells; assay: Formation and size of 3D spheroids (phase-contrast microscope); assay type: cell-based; details: 3D culture, 48 hours
Experimental: as §1
Referring to the document [Higgins, C. A. et al., Exp Dermatol., 19(6), 546-548, 2010; Higgins, C. A. et al., Proc Natl Acad Sci USA., 110(49), 19679-19688, 2013; Kang, B. M. et al., J Invest Dermatol., 132(1), 237-239, 2012], a 3D spheroid culture of human hair follicle dermal papilla cells is reported to induce better formation and growth of hair follicles, compared to a 2D culture of human hair follicle dermal papilla cells. In addition, the document [Whiting, D. A., J Am Acad Dermatol., 45(3 Suppl), S81-S86, 2001; de Lacharriere, O. et al., Arch Dermatol., 137(5), 641-646, 2001; Jahoda, C. A., Exp Dermatol., 7(5), 235-248, 1998] reports that a decrease in the size of dermal papilla may cause follicle miniaturization in patients with hair loss. The Examples of the present disclosure were examined for effects of preventing hair loss and promoting hair growth by monitoring the formation and size of 3D spheroids after application to the 3D spheroid culture of Experimental Example 1.
First, the formation and size change of 3D spheroids of human hair follicle dermal papilla cells were observed. In this regard, the 3D spheroid culture of cells in Experimental Example 1 was seeded at a density of 5×10^4 cells/well into 96-well plates (96-well round-bottom ultra-low attachment microplates) and incubated for 48 hours with predetermined concentrations of Examples 1 and 2 and Comparative Example 1 (ginsenoside Rg2). Thereafter, the human dermal papilla cells were observed under a phase-contrast microscope to see whether the cells formed 3D spheroids and to measure sizes of the spheroids.

ALPL = assay: Real-time PCR mRNA expression, dermal papilla signature gene; assay type: cell-based, human; details: 3D spheroid culture, vs non-treated control
Experimental: as §1, §2
(§3) After being applied to the 3D spheroid culture of human hair follicle dermal papilla cells in Experimental Example 1, the Examples of the present disclosure were examined for the effect of preventing hair loss and promoting hair growth by monitoring mRNA expression levels of ALPL, VCAN, BMP2, and FGF7.
(§4) The mRNA expression analysis of ALPL, VCAN, BMP2, and FGF7 was carried out in the same manner as for β-catenin, WNT5A, and LEF1 in Experimental Example 3-2, with the exception of using primer sets for ALPL, VCAN, FGF7, and BMP2 instead of those for β-catenin, WNT5A, and LEF1. The mRNA expression analysis data are depicted in FIGS. 6 and 7.

FGF7 = assay: as above; assay type: cell-based, human; details: 3D spheroid culture, vs non-treated control
Experimental: as §1, §2, §3, §4

BMP2 = assay: as above; assay type: cell-based, human; details: 3D spheroid culture, vs non-treated control
Experimental: as §1, §2, §3, §4

VCAN = assay: as above; assay type: cell-based, human; details: 3D spheroid culture, vs non-treated control
Experimental: as §1, §2, §3, §4

CC(C)=CC/C=C(/C)[C@H]1CC[C@]2(C)[C@@H]1[C@H](O)C[C@@H]1[C@@]3(C)CC[C@H](O)C(C)(C)[C@@H]3[C@@H](O[C@@H]3O[C@H](CO)[C@@H](O)[C@H](O)[C@H]3O[C@@H]3O[C@@H](C)[C@H](O)[C@@H](O)[C@H]3O)C[C@]12C [Example 1, ginsenoside Rg4]
cell viability ([1]; 2D (monolayer) cultured cells): the same cell viability
cell viability ([1]; 3D (spheroid) cultured cells): the same cell viability
mRNA expression level of LEF1 (LEF1): two folds or more
mRNA expression level of WNT5A (WNT5A): two folds or more
mRNA expression level of β-catenin (β-catenin): two folds or more
activation of TCF/LEF (luciferase activity) (TCF/LEF): two folds or more
number of 3D spheroids, increase compared to ginsenoside Rg2 of Comparative Example 1 ([2]; FIG. 3C): two to three folds
size of 3D spheroids, increase compared to ginsenoside Rg2 of Comparative Example 1 ([2]; FIG. 3C): two to three folds
number of 3D spheroids ([2]; vs non-treated group): increase the number and size of 3D spheroids in a concentration-dependent manner
size of 3D spheroids ([2]; vs non-treated group): increase the number and size of 3D spheroids in a concentration-dependent manner
mRNA expression level of ALPL (ALPL): increased
mRNA expression level of FGF7 (FGF7): increased
mRNA expression level of BMP2 (BMP2): increased
mRNA expression level of VCAN (VCAN): increased
